Target: T1, Motilin Receptor (Oryctolagus cuniculus, UniProt G1T803)
T1 construct: The muscle tissue was homogenized in 10 volumes of 50 mM Tris-Cl; from tissue; host or cells: rabbit colon smooth muscle, crude membrane homogenate
Test: Motilin receptor binding, rabbit colon membranes, 125I porcine motilin
Set-up: Rabbit Colon % Inh / inhibition / % Inh (Rabbit colon): dose or concentration left out as unconfirmed
Settings: rabbit colon membranes
Description: Rabbit colon was removed, dissected free from the mucosa and serosa, and diced into small pieces. The muscle tissue was homogenized in 10 volumes of 50 mM Tris-Cl, 10 mM MgCl2, 0.1 mg/ml bacitracin, and 0.25 mM Peflabloc, at pH 7.5 in a Polytron (29000 rpm, 4×15 seconds). The homogenate was centrifuged at 1000×g for 15 minutes and the supernatant discarded. The pellet was washed twice before being suspended in homogenizing buffer. The crude homogenate was resuspended through a 23 gauge needle before storing at −80° C. […] After 60 minutes at 30° C., the samples were cooled in ice, centrifuged in the cold at 13000×g for 1 minute. The pellet was washed twice with 1 ml of cold saline, the supernatant was aspirated, and the pellet at the bottom of the tube counted in a gamma counter. Non-specific binding was determined by the inclusion of 1 mM of unlabeled motilin. IC50 values were determined from Kaleidograph curves.

T1 sequence (G1T803 1-400): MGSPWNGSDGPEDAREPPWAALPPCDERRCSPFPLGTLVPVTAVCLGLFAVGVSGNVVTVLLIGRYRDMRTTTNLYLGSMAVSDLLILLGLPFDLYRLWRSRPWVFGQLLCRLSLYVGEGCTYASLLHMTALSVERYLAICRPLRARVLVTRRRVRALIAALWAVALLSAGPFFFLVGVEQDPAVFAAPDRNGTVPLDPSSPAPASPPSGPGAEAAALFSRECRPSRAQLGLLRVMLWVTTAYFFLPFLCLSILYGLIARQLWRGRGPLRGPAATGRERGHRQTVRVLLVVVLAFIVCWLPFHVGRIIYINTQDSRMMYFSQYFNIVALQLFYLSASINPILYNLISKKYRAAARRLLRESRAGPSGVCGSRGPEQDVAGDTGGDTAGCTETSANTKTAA

SMILES	Rabbit Colon % Inh [%]
COc1cccc(C(=O)N(Cc2cccc(Cl)c2)C2CCCC(CN(C(=O)Nc3ccccc3)c3cccc(OCCN4CCOCC4)c3)C2)c1 (stereo not shown) [compound 51]	73
CC(C)(C)C(=O)N(Cc1cccc(Cl)c1)C1CCCC(CN(C(=O)Nc2ccccc2)c2cccc(OCCN3CCOCC3)c2)C1 (stereo not shown) [compound 52]	45
O=C(Nc1ccccc1)N(CC1CCCC(N(Cc2cccc(Cl)c2)C(=O)CCc2ccccc2)C1)c1cccc(OCCN2CCOCC2)c1 (stereo not shown) [compound 53]	52
O=C(Nc1ccccc1)N(CC1CCCC(N(Cc2cccc(Cl)c2)C(=O)c2ccc3ccccc3c2)C1)c1cccc(OCCN2CCOCC2)c1 (stereo not shown) [compound 54]	42
O=C(Nc1ccccc1)N(CC1CCCC(N(Cc2cccc(Cl)c2)C(=O)c2cccc([N+](=O)[O-])c2)C1)c1cccc(OCCN2CCOCC2)c1 (stereo not shown) [compound 55]	48
O=C(Nc1ccccc1)N(CC1CCCC(N(Cc2cccc(Cl)c2)C(=O)C(c2ccccc2)c2ccccc2)C1)c1cccc(OCCN2CCOCC2)c1 (stereo not shown) [compound 56]	27
O=C(Nc1ccccc1)N(CC1CCCC(N(Cc2cccc(F)c2)C(=O)C(Cl)(Cl)Cl)C1)c1cccc(OCCN2CCOCC2)c1 (stereo not shown) [compound 58]	38
O=C(Nc1ccccc1)N(CC1CCCC(N(Cc2ccc(Cl)c(Cl)c2)C(=O)C(Cl)(Cl)Cl)C1)c1cccc(OCCN2CCOCC2)c1 (stereo not shown) [compound 59]	23
COc1cccc(CN(C(=O)C(Cl)(Cl)Cl)C2CCCC(CN(C(=O)Nc3ccccc3)c3cccc(OCCN4CCOCC4)c3)C2)c1 (stereo not shown) [compound 61]	55
O=C(Nc1ccccc1)N(CC1CCCC(N(Cc2cccc(C(F)(F)F)c2)C(=O)C(Cl)(Cl)Cl)C1)c1cccc(OCCN2CCOCC2)c1 (stereo not shown) [compound 62]	58
O=C(Nc1ccccc1)N(CC1CCCC(N(Cc2ccc(Cl)cc2)C(=O)C(Cl)(Cl)Cl)C1)c1cccc(OCCN2CCOCC2)c1 (stereo not shown) [compound 63]	55
O=C(Nc1ccccc1)N(CC1CCCC(N(Cc2cccc3ccccc23)C(=O)C(Cl)(Cl)Cl)C1)c1cccc(OCCN2CCOCC2)c1 (stereo not shown) [compound 64]	32
O=C(Nc1ccccc1)N(CC1CCCC(N(Cc2cccc(Cl)c2Cl)C(=O)C(Cl)(Cl)Cl)C1)c1cccc(OCCN2CCOCC2)c1 (stereo not shown) [compound 66]	39
O=C(Nc1ccccc1)NC1CCCC(CN(C(=O)Nc2ccccc2)c2cccc(OCCN3CCOCC3)c2)C1 (stereo not shown) [compound 69]	0
O=C(NC1CCCC(CN(C(=O)Nc2ccccc2)c2cccc(OCCN3CCOCC3)c2)C1)c1ccco1 (stereo not shown) [compound 70]	0
O=C(Nc1ccccc1)N(CC1CCCC(NS(=O)(=O)c2ccc3ccccc3c2)C1)c1cccc(OCCN2CCOCC2)c1 (stereo not shown) [compound 71]	43
O=C(Nc1ccccc1)N(CC1CCCC(NC(=O)C(F)(F)F)C1)c1cccc(OCCN2CCOCC2)c1 (stereo not shown) [compound 73]	25
O=C(NC1CCCC(CN(C(=O)Nc2ccccc2)c2cccc(OCCN3CCOCC3)c2)C1)c1cc(C(F)(F)F)cc(C(F)(F)F)c1 (stereo not shown) [compound 74]	29
O=C(NC1CCCC(CN(C(=O)Nc2ccccc2)c2cccc(OCCN3CCOCC3)c2)C1)c1ccc(-c2ccccc2)cc1 (stereo not shown) [compound 75]	19

SMILES	Rabbit Colon % Inh [%]
COc1cccc(C(=O)NC2CCCC(CN(C(=O)Nc3ccccc3)c3cccc(OCCN4CCOCC4)c3)C2)c1 (stereo not shown) [compound 76]	26
CC(C)(C)C(=O)NC1CCCC(CN(C(=O)Nc2ccccc2)c2cccc(OCCN3CCOCC3)c2)C1 (stereo not shown) [compound 77]	19
O=C(CCc1ccccc1)NC1CCCC(CN(C(=O)Nc2ccccc2)c2cccc(OCCN3CCOCC3)c2)C1 (stereo not shown) [compound 78]	10
O=C(NC1CCCC(CN(C(=O)Nc2ccccc2)c2cccc(OCCN3CCOCC3)c2)C1)c1ccc2ccccc2c1 (stereo not shown) [compound 79]	39
O=C(NC1CCCC(CN(C(=O)Nc2ccccc2)c2cccc(OCCN3CCOCC3)c2)C1)c1cccc([N+](=O)[O-])c1 (stereo not shown) [compound 80]	34
O=C(NC1CCCC(CN(C(=O)Nc2ccccc2)c2cccc(OCCN3CCOCC3)c2)C1)C(c1ccccc1)c1ccccc1 (stereo not shown) [compound 81]	56
O=C(Nc1ccccc1)N(CC1CCCC(N(Cc2ccccc2)C(=O)c2cc(C(F)(F)F)cc(C(F)(F)F)c2)C1)c1cccc(OCCN2CCOCC2)c1 (stereo not shown) [compound 82]	0
O=C(Nc1ccccc1)N(CC1CCCC(N(Cc2ccccc2)C(=O)c2ccc(-c3ccccc3)cc2)C1)c1cccc(OCCN2CCOCC2)c1 (stereo not shown) [compound 83]	3
O=C(Nc1ccccc1)N(CC1CCCC(N(Cc2cccc(Cl)c2)C(=O)c2cccc(O)c2)C1)c1cccc(OCCN2CCOCC2)c1 (stereo not shown) [compound 86]	16
O=C(c1ccc(F)cc1)N(CC1CCCC(NC(=O)C(Cl)(Cl)Cl)C1)c1cccc(OCCN2CCOCC2)c1 (stereo not shown) [compound 91]	36
O=C(c1ccc(F)cc1)N(CC1CCCC(N(Cc2cccc(Cl)c2Cl)C(=O)C(Cl)(Cl)Cl)C1)c1cccc(OCCN2CCOCC2)c1 (stereo not shown) [compound 92]	80
O=C(c1ccc(F)cc1)N(CC1CCCC(N(Cc2cccc3ccccc23)C(=O)C(Cl)(Cl)Cl)C1)c1cccc(OCCN2CCOCC2)c1 (stereo not shown) [compound 94]	28
O=C(c1ccc(F)cc1)N(CC1CCCC(N(Cc2ccc(Cl)cc2)C(=O)C(Cl)(Cl)Cl)C1)c1cccc(OCCN2CCOCC2)c1 (stereo not shown) [compound 95]	51
COc1cccc(CN(C(=O)C(Cl)(Cl)Cl)C2CCCC(CN(C(=O)c3ccc(F)cc3)c3cccc(OCCN4CCOCC4)c3)C2)c1 (stereo not shown) [compound 97]	56
O=C(c1ccc(F)cc1)N(CC1CCCC(N(Cc2cccc(F)c2)C(=O)C(Cl)(Cl)Cl)C1)c1cccc(OCCN2CCOCC2)c1 (stereo not shown) [compound 100]	78
O=C(c1ccc(F)cc1)N(CC1CCCC(N(Cc2cccc(Cl)c2)C(=O)C(c2ccccc2)c2ccccc2)C1)c1cccc(OCCN2CCOCC2)c1 (stereo not shown) [compound 101]	59
O=C(c1ccc(F)cc1)N(CC1CCCC(N(Cc2cccc(Cl)c2)C(=O)c2cccc([N+](=O)[O-])c2)C1)c1cccc(OCCN2CCOCC2)c1 (stereo not shown) [compound 102]	47
O=C(c1ccc(F)cc1)N(CC1CCCC(N(Cc2cccc(Cl)c2)C(=O)c2ccc3ccccc3c2)C1)c1cccc(OCCN2CCOCC2)c1 (stereo not shown) [compound 103]	2
O=C(c1ccc(F)cc1)N(CC1CCCC(N(Cc2cccc(Cl)c2)C(=O)CCc2ccccc2)C1)c1cccc(OCCN2CCOCC2)c1 (stereo not shown) [compound 104]	30

Same assay, conditions: rabbit colon membranes; 125I porcine motilin binding

SMILES	% Inh (Rabbit colon) [%]
O=C(Nc1ccccc1)N(CC1CCCC(NCc2ccccc2)C1)c1cccc(OCCN2CCOCC2)c1 (stereo not shown) [compound 84]	12
O=C(Nc1ccccc1)N(CC1CCCC(NCc2cccc(Cl)c2)C1)c1cccc(OCCN2CCOCC2)c1 (stereo not shown) [compound 85]	28
O=C(Nc1ccccc1)N(CC1CCCC(NCc2cc(Cl)cc(Cl)c2)C1)c1cccc(OCCN2CCOCC2)c1 (stereo not shown) [compound 87]	22
O=C(Nc1ccccc1)N(CC1CCCC(NCc2cccc3ccccc23)C1)c1cccc(OCCN2CCOCC2)c1 (stereo not shown) [compound 88]	0

Same assay, conditions: rabbit colon membranes; read-out: Rabbit Colon % Inh

SMILES	inhibition [%]
O=C(Nc1ccccc1)N(CC1CCCC(N(Cc2ccccc2)S(=O)(=O)c2ccc3ccccc3c2)C1)c1cccc(OCCN2CCOCC2)c1 (stereo not shown) [compound 57]	15
O=C(Nc1ccccc1)N(CC1CCCC(N(Cc2cc(Cl)cc(Cl)c2)C(=O)C(Cl)(Cl)Cl)C1)c1cccc(OCCN2CCOCC2)c1 (stereo not shown) [compound 60]	65
O=C(Nc1ccccc1)N(CC1CCCC(N(Cc2ccccc2)C(=O)C(Cl)(Cl)Cl)C1)c1cccc(OCCN2CCOCC2)c1 (stereo not shown) [compound 67]	75
O=C(Nc1ccccc1)N(CC1CCCC(N(Cc2ccccn2)C(=O)C(Cl)(Cl)Cl)C1)c1cccc(OCCN2CCOCC2)c1 (stereo not shown) [compound 68]	73
O=C(Nc1ccccc1)N(CC1CCCC(NC(=O)C(Cl)(Cl)Cl)C1)c1cccc(OCCN2CCOCC2)c1 (stereo not shown) [compound 72]	40
O=C(c1ccc(F)cc1)N(CC1CCCC(N(Cc2cc(Cl)cc(Cl)c2)C(=O)C(Cl)(Cl)Cl)C1)c1cccc(OCCN2CCOCC2)c1 (stereo not shown) [compound 98]	75
O=C(c1ccc(F)cc1)N(CC1CCCC(N(Cc2ccc(Cl)c(Cl)c2)C(=O)C(Cl)(Cl)Cl)C1)c1cccc(OCCN2CCOCC2)c1 (stereo not shown) [compound 99]	62

Same assay, conditions: rabbit colon membranes; read-out: Rabbit Colon IC50

SMILES	IC50 [µM]
COc1cccc(C(=O)N(Cc2cccc(Cl)c2)C2CCCC(CN(C(=O)Nc3ccccc3)c3cccc(OCCN4CCOCC4)c3)C2)c1 (stereo not shown) [compound 51]	0.65
O=C(Nc1ccccc1)N(CC1CCCC(N(Cc2cc(Cl)cc(Cl)c2)C(=O)C(Cl)(Cl)Cl)C1)c1cccc(OCCN2CCOCC2)c1 (stereo not shown) [compound 60]	0.66
O=C(Nc1ccccc1)N(CC1CCCC(N(Cc2ccccc2)C(=O)C(Cl)(Cl)Cl)C1)c1cccc(OCCN2CCOCC2)c1 (stereo not shown) [compound 67]	0.957
O=C(Nc1ccccc1)N(CC1CCCC(N(Cc2ccccn2)C(=O)C(Cl)(Cl)Cl)C1)c1cccc(OCCN2CCOCC2)c1 (stereo not shown) [compound 68]	0.66
O=C(c1ccc(F)cc1)N(CC1CCCC(N(Cc2cc(Cl)cc(Cl)c2)C(=O)C(Cl)(Cl)Cl)C1)c1cccc(OCCN2CCOCC2)c1 (stereo not shown) [compound 98]	0.76
O=C(c1ccc(F)cc1)N(CC1CCCC(N(Cc2ccc(Cl)c(Cl)c2)C(=O)C(Cl)(Cl)Cl)C1)c1cccc(OCCN2CCOCC2)c1 (stereo not shown) [compound 99]	0.572

— patent US7112586B2, “Substituted diamine derivatives useful as motilin antagonists” (Ortho-McNeil Pharmaceutical, Inc., priority 2000, dated 2006)
